Earlier results on one compound are cited in patent US11648202B2, “Hydroxychloroquine sulfate formulations and methods for preparation and use thereof” (Research Triangle Institute, priority 2017, dated 2023).

Structures can show the parent of a compound that is named as a salt.

In the case of `CCN(CCO)CCCC(C)Nc1ccnc2cc(Cl)ccc12` (stereo not shown) [HCQS, hydroxychloroquine sulfate], the “pKa of the amine” value is “about 9.4”.
